Read-outs that look alike come from different tables or passages of the source.
Columns and labels:
[1] = Affinity to phospholipids by IAM-HPLC (IAM.PC.DD2 column); assay type: physicochemical
Description: (§1) Elution was conducted under the following conditions:
(§2) The injected volume was 10 μL. […] Each sample was analyzed three times.

human serum albumin = human serum albumin (Homo sapiens, UniProt P02768)
Description: Each column was equipped with an appropriate precolumn. Elution was conducted under the following conditions:

[2] = Chromatographic lipophilicity by RP-HPLC on C18 column (CHIC18); assay type: physicochemical
Description: as §1, §2

[3] = IAM.PC.DD2 column, acetonitrile gradient, 50 mM ammonium acetate pH 7.4, 30 °C
[4] = HSA column, isopropanol gradient, 50 mM ammonium acetate pH 7.4, 30 °C
[5] = C18 XTERRA RP18 column, acetonitrile gradient, 50 mM ammonium acetate pH 7.4, 30 °C

Sequence of human serum albumin (P02768 25-609): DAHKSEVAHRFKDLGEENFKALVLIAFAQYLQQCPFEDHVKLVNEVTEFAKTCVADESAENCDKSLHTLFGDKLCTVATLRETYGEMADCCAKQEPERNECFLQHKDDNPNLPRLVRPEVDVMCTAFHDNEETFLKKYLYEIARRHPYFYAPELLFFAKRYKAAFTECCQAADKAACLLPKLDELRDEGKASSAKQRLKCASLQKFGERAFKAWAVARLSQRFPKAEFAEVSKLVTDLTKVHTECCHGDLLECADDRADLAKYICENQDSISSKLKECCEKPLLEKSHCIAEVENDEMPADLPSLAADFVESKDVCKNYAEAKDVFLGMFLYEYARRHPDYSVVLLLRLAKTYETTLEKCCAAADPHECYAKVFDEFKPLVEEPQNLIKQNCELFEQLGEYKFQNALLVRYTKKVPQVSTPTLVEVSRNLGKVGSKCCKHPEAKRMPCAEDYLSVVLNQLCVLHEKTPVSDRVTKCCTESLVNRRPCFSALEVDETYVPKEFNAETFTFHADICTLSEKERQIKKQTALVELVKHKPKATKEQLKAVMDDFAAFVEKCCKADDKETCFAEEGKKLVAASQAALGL

Compound	CHIIAM (chromatographic hydrophobicity index of IAM-HPLC) [1, 3]	%HSA (binding to HSA) (human serum albumin; [4]) [%]	LogkHSA (chromatographically determined affinity to HSA-HPLC) (human serum albumin; [4])	CHIC18 (chromatographic hydrophobicity index of RP-HPLC) [2, 5]	further results
COP(=S)(OC)Oc1ccc([N+](=O)[O-])c(C)c1 [Fenitrothion]	38.10	91.78	1.00	93.49	
COP(=O)(OC)OC=C(Cl)Cl [Dichlorvos]	16.56	65.86	0.27	23.17	CHIC18 (chromatographic hydrophobicity index of RP-HPLC) ([2]; C18 XTERRA RP18 column, acetonitrile gradient, 50 mM ammonium acetate pH 7.4, 30 °C, listed as dichlorvos): low lipophilicity
COP(=S)(OC)SCn1nnc2ccccc2c1=O [Azinphos-methyl]	33.18	86.70	0.78	83.47	
Chlorpyrifos-oxon	24.96		0.68	39.17	%HSA (binding to HSA) (human serum albumin; pH 7.4): 83.49%
CCOP(=S)(OCC)SCn1nnc2ccccc2c1=O [Azinphos-ethyl]	37.81	92.07	1.01	95.69	
CCCSP(=O)(OCC)SCCC [Ethoprophos]					CHIIAM (chromatographic hydrophobicity index of IAM-HPLC) ([1]; pH 7.4): 32.41; %HSA (binding to HSA) (human serum albumin; human, pH 7.4): 28.35%; LogkHSA (chromatographically determined affinity to HSA-HPLC) (human serum albumin; human, pH 7.4): −0.41; CHIC18 (chromatographic hydrophobicity index of RP-HPLC) ([2]; pH 7.4): 88.39
CCOP(=S)(OCC)SCCSCC [Disulfoton]	42.34	92.86	1.06	108.97	CHIIAM (chromatographic hydrophobicity index of IAM-HPLC) ([1]; IAM.PC.DD2 column, acetonitrile gradient, 50 mM ammonium acetate pH 7.4, 30 °C, listed as disulfoton): highest CHIIAM values; CHIC18 (chromatographic hydrophobicity index of RP-HPLC) ([2]; C18 XTERRA RP18 column, acetonitrile gradient, 50 mM ammonium acetate pH 7.4, 30 °C, listed as disulfoton): remarkably high lipophilicity
COP(=O)(OC)OC(Br)C(Cl)(Cl)Br (centres unmarked) [Naled]	29.79	43.86	−0.11	31.32	CHIC18 (chromatographic hydrophobicity index of RP-HPLC) ([2]; C18 XTERRA RP18 column, acetonitrile gradient, 50 mM ammonium acetate pH 7.4, 30 °C, listed as naled): low lipophilicity
CCOP(=S)(OCC)Oc1cc(C)nc(C(C)C)n1 [Diazinon]	39.34	81.33	0.62	105.98	CHIC18 (chromatographic hydrophobicity index of RP-HPLC) ([2]; C18 XTERRA RP18 column, acetonitrile gradient, 50 mM ammonium acetate pH 7.4, 30 °C, listed as diazinon): remarkably high lipophilicity
CCOC(=O)N(C)C(=O)CSP(=S)(OCC)OCC [Mecarbam]	35.77	74.23	0.44	97.09	
CCOP(=O)(OCC)Oc1ccc([N+](=O)[O-])cc1 [Paraoxon-ethyl]	25.34	27.68	−0.42	72.54	
CCOP(=S)(OCC)SCSCC [Phorate]	42.43	93.08	1.07	108.36	CHIIAM (chromatographic hydrophobicity index of IAM-HPLC) ([1]; IAM.PC.DD2 column, acetonitrile gradient, 50 mM ammonium acetate pH 7.4, 30 °C, listed as phorate): highest CHIIAM values
COP(=S)(OC)Oc1ccc([N+](=O)[O-])cc1 [Parathion-methyl]	35.54	87.94	0.83	88.75	
CCOP(=S)(OCC)Oc1cnc2ccccc2n1 [Quinalphos]	39.40	91.23	0.97	101.01	CHIC18 (chromatographic hydrophobicity index of RP-HPLC) ([2]; C18 XTERRA RP18 column, acetonitrile gradient, 50 mM ammonium acetate pH 7.4, 30 °C, listed as quinalphos): remarkably high lipophilicity
COP(=S)(OC)SCN1C(=O)c2ccccc2C1=O [Phosmet]	33.89	87.23	0.80	85.39	
CCOP(=O)(OCC)OC(=CCl)c1ccc(Cl)cc1Cl [Chlorfenvinphos]	38.13	85.54	0.74	97.18	
COP(=S)(OC)Oc1ccc(SC)c(C)c1 [Fenthion]	42.37	96.04	1.29	102.16	CHIIAM (chromatographic hydrophobicity index of IAM-HPLC) ([1]; IAM.PC.DD2 column, acetonitrile gradient, 50 mM ammonium acetate pH 7.4, 30 °C, listed as fenthion): highest CHIIAM values; %HSA (binding to HSA) (human serum albumin; HSA column, isopropanol gradient, 50 mM ammonium acetate pH 7.4, 30 °C, listed as fenthion): highest protein-binding capacity

Reference: PMC11898958, “Application of Biomimetic Chromatography and QSRR Approach for Characterizing Organophosphate Pesticides” (International Journal of Molecular Sciences, 2025)
